Laboratory results: PubChem BioAssay AID2060338 (Molecular Pharmacology Branch, DTP, NCI, 2025)

Tested on: 556581-035-R-J1-PDC spheroids with HUVEC/MSC, viability
Assay: Anticancer human tumor 556581-035-R-J1-PDC patient-derived ovarian carcinoma cell line growth inhibition [IpAb]
Conditions: for IC50: curve of first compound; for viability, T/C: stronger effect = lower value
Procedure, shortened: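 Spheroids of 60% malignant cells, 25% HUVEC and 15% MSC were exposed to targeted agents combined with ipatasertib or abemaciclib. Doses started at or near clinical Cmax (10 microM when unknown) and fell in half-log steps.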

[1] = second compound 0.01 µM, first compound 0.0316 µM
[2] = second compound 0.01 µM, first compound 0.1 µM
[3] = second compound 0.01 µM, first compound 0.316 µM
[4] = second compound 0.01 µM, first compound 1 µM
[5] = second compound 0.01 µM, first compound 3.16 µM
[6] = second compound 0.01 µM, first compound 10 µM
[7] = second compound 0.0316 µM, first compound 0.0316 µM
[8] = second compound 0.0316 µM, first compound 0.1 µM
[9] = second compound 0.0316 µM, first compound 0.316 µM
[10] = second compound 0.0316 µM, first compound 1 µM
[11] = second compound 0.0316 µM, first compound 3.16 µM
[12] = second compound 0.0316 µM, first compound 10 µM
[13] = second compound 0.1 µM, first compound 0.0316 µM
[14] = second compound 0.1 µM, first compound 0.1 µM
[15] = second compound 0.1 µM, first compound 0.316 µM
[16] = second compound 0.1 µM, first compound 1 µM
[17] = second compound 0.1 µM, first compound 3.16 µM
[18] = second compound 0.1 µM, first compound 10 µM
[19] = second compound 0.316 µM, first compound 0.0316 µM
[20] = second compound 0.316 µM, first compound 0.1 µM
[21] = second compound 0.316 µM, first compound 0.316 µM
[22] = second compound 0.316 µM, first compound 1 µM
[23] = second compound 0.316 µM, first compound 3.16 µM
[24] = second compound 0.316 µM, first compound 10 µM
[25] = second compound 1 µM, first compound 0.0316 µM
[26] = second compound 1 µM, first compound 0.1 µM
[27] = second compound 1 µM, first compound 0.316 µM
[28] = second compound 1 µM, first compound 1 µM
[29] = second compound 1 µM, first compound 3.16 µM
[30] = second compound 1 µM, first compound 10 µM
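Note: spheroids exposed to compounds for 7 days before readout.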

Row | Compound | IC50 (second compound 0.01 µM) [µM] | IC50 (second compound 0.0316 µM) [µM] | IC50 (second compound 0.1 µM) [µM] | IC50 (second compound 0.316 µM) [µM] | IC50 (second compound 1 µM) [µM] | viability, T/C [1] [%] | viability, T/C [2] [%] | viability, T/C [3] [%] | viability, T/C [4] [%] | viability, T/C [5] [%] | viability, T/C [6] [%] | viability, T/C [7] [%] | viability, T/C [8] [%] | viability, T/C [9] [%] | viability, T/C [13] [%] | viability, T/C [14] [%] | viability, T/C [19] [%] | viability, T/C [20] [%] | viability, T/C [25] [%] | viability, T/C [26] [%] | other results
1 | C=CC(=O)N1CCN(c2nc(=O)n(-c3c(C)ccnc3C(C)C)c3nc(-c4c(O)cccc4F)c(F)cc23)C(C)C1 (stereo not given) + CCN1CCN(Cc2ccc(Nc3ncc(F)c(-c4cc(F)c5nc(C)n(C(C)C)c5c4)n3)nc2)CC1 | 7.37 | 7.29 | 7.02 | 4.11 | 0.143 | 102 | 108 | 105 | 119 | 91 | 35.2 | 91.2 | 107 | 104 | 94.1 | 109 | 85.3 | 93.3 | 50.1 | 50.2 | viability, T/C [10]: 107%; viability, T/C [11]: 108%; viability, T/C [12]: 29.7%; viability, T/C [15]: 103%; viability, T/C [16]: 124%; viability, T/C [17]: 94.4%; viability, T/C [18]: 30.1%; viability, T/C [21]: 108%; viability, T/C [22]: 106%; viability, T/C [23]: 56.4%; viability, T/C [24]: 28.1%; viability, T/C [27]: 51.6%; viability, T/C [28]: 42%; viability, T/C [29]: 34.2%; viability, T/C [30]: 17.6%
2 | Cn1ncc(Cl)c1-c1cc(C(=O)NC(CN)Cc2cccc(F)c2)sc1Cl (stereo not given) + CCN1CCN(Cc2ccc(Nc3ncc(F)c(-c4cc(F)c5nc(C)n(C(C)C)c5c4)n3)nc2)CC1 | 1.61 | 1.8 | 1.54 | 1.17 | 0.402 | 96 | 81.6 | 64.2 | 60.7 | 44.3 | 0.26 | 85.4 | 78.5 | 79.1 | 91.4 | 82.2 | 88.5 | 92.3 | 56.7 | 54.3 | viability, T/C [10]: 56.9%; viability, T/C [11]: 41.1%; viability, T/C [12]: 0.2%; viability, T/C [15]: 63.9%; viability, T/C [16]: 54.2%; viability, T/C [17]: 47.1%; viability, T/C [18]: 0.18%; viability, T/C [21]: 54.8%; viability, T/C [22]: 60.6%; viability, T/C [23]: 31.5%; viability, T/C [24]: 12.4%; viability, T/C [27]: 50.5%; viability, T/C [28]: 44.7%; viability, T/C [29]: 25.6%; viability, T/C [30]: 0.54%
3 | Cn1ncnc1[C@H]1c2n[nH]c(=O)c3cc(F)cc(c23)N[C@@H]1c1ccc(F)cc1 + CCN1CCN(Cc2ccc(Nc3ncc(F)c(-c4cc(F)c5nc(C)n(C(C)C)c5c4)n3)nc2)CC1 | > 0.1 | > 0.1 | > 0.1 | 0.0838 | 0.00165 | 84.1 | 63.7 |  |  |  |  | 61.3 | 60 |  | 63.1 | 55.2 | 59.2 | 48.3 | 41.9 | 44.4 | viability, T/C (second compound 0.01 µM, first compound 0.000316 µM): 80.6%; viability, T/C (second compound 0.01 µM, first compound 0.001 µM): 107%; viability, T/C (second compound 0.01 µM, first compound 0.00316 µM): 80.9%; viability, T/C (second compound 0.01 µM, first compound 0.01 µM): 83.6%; viability, T/C (second compound 0.0316 µM, first compound 0.000316 µM): 84.9%; viability, T/C (second compound 0.0316 µM, first compound 0.001 µM): 82.8%; viability, T/C (second compound 0.0316 µM, first compound 0.00316 µM): 90.6%; viability, T/C (second compound 0.0316 µM, first compound 0.01 µM): 83.2%; viability, T/C (second compound 0.1 µM, first compound 0.000316 µM): 67.7%; viability, T/C (second compound 0.1 µM, first compound 0.001 µM): 81.3%; viability, T/C (second compound 0.1 µM, first compound 0.00316 µM): 84.9%; viability, T/C (second compound 0.1 µM, first compound 0.01 µM): 83.2%; viability, T/C (second compound 0.316 µM, first compound 0.000316 µM): 70.8%; viability, T/C (second compound 0.316 µM, first compound 0.001 µM): 77.8%; viability, T/C (second compound 0.316 µM, first compound 0.00316 µM): 69.8%; viability, T/C (second compound 0.316 µM, first compound 0.01 µM): 79.1%; viability, T/C (second compound 1 µM, first compound 0.000316 µM): 51.5%; viability, T/C (second compound 1 µM, first compound 0.001 µM): 59.2%; viability, T/C (second compound 1 µM, first compound 0.00316 µM): 43.1%; viability, T/C (second compound 1 µM, first compound 0.01 µM): 37.3%
